Measured values reported in US10675360B2 (MADRIGAL PHARMACEUTICALS, INC., priority 2014, dated 2020).

Legend:
[1] = Stability in mouse plasma; format: in vitro ADME; conditions: for Mouse (10 μM) % Remaining 1 h (37° C.) §: § not explained; for % Remaining: 1 h
[2] = test system: H 3211 NSLC cells; experiment: IC50 of continuous and pulsed exposure to SDC-TRAPs; format: cell-based; conditions: 72 h, read-out: IC50, 72 h-continuous, H 3211 NSLC cells, 7.5 × 10^3 cells/well; 1st of 3 columns
[3] = Stability in cell culture media; conditions: § not explained
Description: 98 μL of DMEM+10% FBS, +1% P/S, +1.5 g/L sodium bicarbonate cell culture media was mixed with 2 μL of DMSO and aliquotted into 96-well plates at 250 μL per 0, 1, 2, and 18 hour time point.
3×50 μL media samples in 96 were held in 96-well plates at −80° C. until the last time point was extracted. 200 μL of methanol containing IS was added and mixed by vortex at 1500 rpm for 1.5 minutes at room temperature. The samples were centrifuged at 4400 rpm for 10 minutes at 8° C.

[4] = target: T1, Hsp90α (Homo sapiens, UniProt P07900); experiment: Hsp90α binding assay (fluorescence polarization, FITC-labeled geldanamycin)
T1 construct: purchased BPS Bioscience 50294
Description: An Hsp90^α fluorescence assay kit from BPS Bioscience (Cat #50294) containing Hsp90 recombinant enzyme, FITC-labeled geldanamycin, assay buffer and a low binding 384-well plate was used to assay Hsp90^α binding. Dithiothreitol (DTT) (Cat # D0643) and bovine serum albumin (BSA) (Cat # A2153) were obtained from Sigma-Aldrich. Fluorescence polarization was measured using a PHERAstar microplate reader (BMG LABTECH GmbH, Ortenberg, Germany.)
The compounds were diluted to 1 mM in DMSO and loaded into a compound dilution plate to make 3-fold dilutions yielding a total of 8 concentrations. 1 μL of compound was transferred from the dilution plate to the low binding assay plate provided in the assay kit. 5 mL of Hsp90^α binding solution was prepared having a final concentration of 7 ng/μL Hsp90^α, 5 nM FITC-labeled geldanamycin, 2 mM DTT and 0.1 mg/mL BSA. 49 μL of binding solution was added to each microplate well, incubated at room temperature for 1 hour, then read using the PHERAstar microplate reader. The high control sample contained no compound plus Hsp90^α; the low control sample contained no compound and no Hsp90^α. […] The IC50 was calculated using GraphPad Prism 4 software.

[5] = Tissue distribution of SDC-TRAPs in tumor-bearing mice (plasma, tumor, heart); conditions: mouse, in vivo
Description: Using the 10 mM stock solutions of the SDC-TRAP molecule and its Hsp90i binding moiety and effector moiety in DMSO, spiking solutions were prepared at 0.025, 0.05, 0.1, 0.5, 1, 5, 10, 50, 100, 250, and 500 μM in DMSO. 5 μL of each spiking solution was added to a 96-deep well plate.
Quality control standards were prepared from 5 μL of 0.1, 1, and 10 μM calibration standard spiking solution added in triplicate into 96-deep well plate and adding 50 μL of matrix (plasma or homogenized tumor).
To prepare test samples, test plasma was diluted as needed using blank plasma. Tumor samples were pulverized in liquid nitrogen, weighed, and homogenized in PBS at 5× volume to sample weight. 50 μL of unknown plasma or homogenized tumor sample was mixed with 5 μL of DMSO. The samples were extracted by precipitating calibration standards, QC standards, and unknown samples with 200 μL of internal standard solution. The samples were mixed by vortex at room temperature for approximately 1.5 minutes, then centrifuge at 2-8° C. 150 μL of supernatant was collected and 25 μL of water added. Samples were mixed and analyzed by LC-MS/MS.
Samples of plasma, heart and tumor were excised from a euthanized mouse, homogenized in PBS at 5 times tissue weight and diluted in 5 μL DMSO/50 μL sample. Prior to analysis, 55 μL samples and calibration standards were precipitated in 200 μL methanol in 96-well plates. Samples were mixed on a vortex mixer for 1.5 minutes at 1500 rpm at room temperature, then centrifuged at 4400 rpm for 10 minutes at 8° C. 150 μL of each supernatant was transferred to a well of a new 96-well plate, and 25 μL of water was added and mixed with the sample. […] For the analysis of samples from female SCID mice, a gradient of solvent A (water/0.1% formic acid) and B (acetonitrile/0.1% formic acid) was used as in Table A below.

[6] = test system: MCF-7 breast cancer cells; experiment: Mouse xenograft efficacy in an MCF-7 breast cancer model; format: in vivo; conditions: FIG. 8
Description: MCF-7 breast cancer cells were purchased from ATCC. […] Fetal bovine serum was then added to the medium. The final concentration of fetal bovine serum was 10%. Cells were cultured at 37° C. and 5% CO2.
Mice that were not put on treatment were euthanized. Animals were sourced through CRL (Wilmington, Mass.).

[7] = Artificial membrane permeability assay (PAMPA); format: in vitro ADME; conditions: 5 h incubation, first table
Description: In order to test the ability SDC-TRAP molecules of the invention to enter cells, an artificial membrane permeability assay (“PAMPA”) was used. […] LC/MS was used in conjunction with PAMPA assays to determine the ability of the SDC-TRAP molecules of the invention to permeate cells.
Pre-coated PAMPA plates were warmed to room temperature for at least 30 minutes prior to adding assay components.
Stock solutions were prepared with the SDC-TRAP molecules to be tested. In order to make a working solution, either 50 μL of 100 μM Stock in DMSO+950 μL of PBS or 50 μL of 200 μM stock was added to 96 deep well plate, resulting in a 5 μM final concentration or a 10 μM final concentration, respectively. 300 μL of the working solution containing each compound to be tested was added to the appropriate well of a donor PAMPA plate. 200 μL of PBS was added into the corresponding wells of an acceptor PAMPA plates.
The acceptor plate was lowered onto the donor plate and allowed to incubate for five hours. After five hours, a 50 μL aliquot was removed from each well of each plate and added into a new 96 deep-well plate.
100 μL of methanol containing an internal standard was added to each aliquot and analyzed by LC/MS. The internal standard was 150 ng/ml SDC-TRAP-0002.
In order to calculate the permeability for each SDC-TRAP molecule and the control molecules, the following formula was used:

Row | SMILES | Mouse (10 μM) % Remaining 1 h (37° C.) § ([1]; mouse plasma, 10 μM) | % Remaining ([1]; mouse plasma, 37° C.) | Media (5 μM) % Remaining 1 h (37° C.) § [3] | EC50 [4] | further results
1 | CCc1c2c(nc3ccc(OC(=O)N(C)CCOCCn4ccc5cc(-n6c(O)nnc6-c6cc(C(C)C)c(O)cc6O)ccc54)cc13)-c1cc3c(c(=O)n1C2)COC(=O)C3(O)CC (stereo not drawn) [SDC-TRAP-0029, 4,11-diethyl-4-hydroxy-3,14-dioxo-3,4,12,14-tetrahydro-1H-pyrano[3′,4′:6,7]indolizino[1,2-b]quinolin-9-yl (2-(2-(5-(3-(2,4-dihydroxy-5-isopropylphenyl)-5-hydroxy-4H-1,2,4-triazol-4-yl)-1H-indol-1-yl)ethoxy)ethyl)(methyl)carbamate] | 44% | 47% | 43% |  | IC50 [2]: 79 nM
2 | CCc1c2c(nc3ccc(OC(=O)N4CCC(CCn5ccc6cc(-n7c(O)nnc7-c7cc(C(C)C)c(O)cc7O)ccc65)CC4)cc13)-c1cc3c(c(=O)n1C2)COC(=O)[C@]3(O)CC [SDC-TRAP-0063, 4,11-diethyl-4-hydroxy-3,14-dioxo-3,4,12,14-tetrahydro-1H-pyrano[3′,4′:6,7]indolizino[1,2-b]quinolin-9-yl 4-(2-(5-(3-(2,4-dihydroxy-5-isopropylphenyl)-5-hydroxy-4H-1,2,4-triazol-4-yl)-1H-indol-1-yl)ethyl)piperidine-1-carboxylate] |  |  |  | 158 nM | % Remaining ([1]; mouse, plasma, 10 μM): 11.1%; Selective targeting of tumor [5]: selectively targets and accumulates in tumor cells; Suppression of increase in tumor volume, higher versus lower dose ([6]; 150 mg/kg/1×wk compared to 100 mg/kg/1×wk): appears to prolong the suppression of increase in tumor volume compared to a lower dose; Tumor growth suppression versus irinotecan alone or ganetespib plus irinotecan ([6]; 150 or 100 mg/kg/1×wk): greater tumor growth suppression than effector moiety irinotecan alone
3 | CC(C)c1cc(-c2nnc(O)n2-c2ccc3c(ccn3CCNC(=O)CCCCCNC(=O)CCCC[C@H]3SCC4NC(=O)NC43)c2)c(O)cc1O (stereo in doubt) [SDC-TRAP-0234, N-(2-(5-(3-(2,4-dihydroxy-5-isopropylphenyl)-5-hydroxy-4H-1,2,4-triazol-4-yl)-1H-indol-1-yl)ethyl)-6-(5-((3aR,4R,6aS)-2-oxohexahydro-1H-thieno[3,4-d]imidazol-4-yl)pentanamido)hexanamide] |  |  |  |  | Papp at 5 h [7]: 0.0123 ×10⁻⁶ cm/s
4 | CCc1c2c(nc3ccc(OC(=O)N(C)C4CCN(C(=O)CCn5ccc6cc(-n7c(O)nnc7-c7cc(C(C)C)c(O)cc7O)ccc65)CC4)cc13)-c1cc3c(c(=O)n1C2)COC(=O)C3(O)CC (stereo not drawn) [SDC-TRAP-0184, 4,11-diethyl-4-hydroxy-3,14-dioxo-3,4,12,14-tetrahydro-1H-pyrano[3′,4′:6,7]indolizino[1,2-b]quinolin-9-yl (1-(3-(5-(3-(2,4-dihydroxy-5-isopropylphenyl)-5-hydroxy-4H-1,2,4-triazol-4-yl)-1H-indol-1-yl)propanoyl)piperidin-4-yl)(methyl)carbamate] |  | 18.0% |  | 86.6 nM | 
5 | CCc1c2c(nc3ccc(OC(=O)N4CCN(Cc5ccc(-n6c(O)nnc6-c6cc(C(C)C)c(O)cc6O)cc5)CC4)cc13)-c1cc3c(c(=O)n1C2)COC(=O)C3(O)CC (stereo not drawn) [SDC-TRAP-0046, 4,11-diethyl-4-hydroxy-3,14-dioxo-3,4,12,14-tetrahydro-1H-pyrano[3′,4′:6,7]indolizino[1,2-b]quinolin-9-yl 4-(4-(3-(2,4-dihydroxy-5-isopropylphenyl)-5-hydroxy-4H-1,2,4-triazol-4-yl)benzyl)piperazine-1-carboxylate] | 50% | 52% | 62% |  | 
